Source: patent US20040110771A1, “7-(r)-aminotriazolopyrimidines, the production thereof and use of the same for combatting phytopathogenic fungi” (priority 2000, published 2004)

Assays:
Assay type in all cases: in vivo
Pyrenophora teres = assay: Activity against net blotch of barley caused by Pyrenophora teres; settings: barley seedlings "Igri", inoculated 24 h after spraying, 6 days
How it was run: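 Potted barley seedlings (cv. Igri) were sprayed to runoff with aqueous compound preparation, then inoculated with P. teres spores 24 h after the spray dried. Plants were kept in a greenhouse at 20-24° C and 95-100% relative humidity, and disease was scored visually after 6 days as % infected leaf area.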

Septoria tritici = assay: Protective activity against Septoria foliar blotch disease of wheat caused by Septoria tritici; settings: wheat seedlings "Riband", inoculated 24 h after spraying, 2 weeks
Experimental: The active compounds were prepared separately or jointly as a 10% strength emulsion in a mixture of 70% by weight of cyclohexanone, 20% by weight of Nekanil® LN (Lutensol® AP6, wetting agent having emulsifying and dispersing action based on ethoxylated alkylphenols) and 10% by weight of Wettol® EM (nonionic emulsifier based on ethoxylated castor oil) and diluted with water to the desired concentration.
Leaves of potted wheat seedlings of the cultivar “Riband” were sprayed to runoff point with an aqueous preparation of active compound which had been prepared from a stock solution made of 10% of active compound, 85% of cyclohexanone and 5% of emulsifier. 24 hours after the spray coating had dried on, they were inoculated with an aqueous spore suspension of Septoria tritici. The suspension contained 2.0×10^6 spores/ml. The test plants were then placed in a greenhouse at 18-22° C. and a relative atmospheric humidity of close to 100%. After 2 weeks, the extent of the development of the disease was determined visually in % infection of the entire leaf area.

Puccinia recondita = assay: Curative activity against brown rust of wheat caused by Puccinia recondita; settings: curative spray 24 h after inoculation, wheat seedlings "Kanzler", 7 days
How it was run: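 Wheat seedlings (cv. Kanzler) inoculated with brown rust spores and held 24 h at 90–95% humidity and 20–22°C, then sprayed to runoff with the emulsified compound the next day. Rust development on leaves scored after 7 days in greenhouse at 20–22°C and 65–70% relative humidity.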

[1] = tested on: Blumeria graminis forma specialis tritici; assay: Activity against mildew of wheat caused by Blumeria graminis forma specialis tritici; settings: wheat seedlings "Kanzler", dusted with spores 24 h after spraying, 7 days
How it was run: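 Compound, emulsified then diluted in water, sprayed to runoff onto leaves of potted wheat seedlings cv. Kanzler; inoculated with Blumeria graminis f. sp. tritici spores 24 h after the coating dried. Plants kept in greenhouse at 20-24° C., 60-90% relative humidity; mildew scored visually after 7 days as % infected leaf area.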

SMILES | % infection of the leaves after application of an aqueous preparation comprising . . . ppm of active compound (Pyrenophora teres; 16 ppm) [%] | % infection of the leaves after application of an aqueous preparation comprising . . . ppm of active compound (Pyrenophora teres; 63 ppm) [%] | % infection of the leaves after application of an aqueous preparation comprising . . . ppm of active compound (Septoria tritici; 16 ppm) [%] | % infection of the leaves after application of an aqueous preparation comprising . . . ppm of active compound (Septoria tritici; 63 ppm) [%] | % infection of the leaves after application of an aqueous preparation comprising . . . ppm of active compound (Septoria tritici; 250 ppm) [%] | % infection of the leaves after application of an aqueous preparation comprising . . . ppm of active compound (Puccinia recondita; 250 ppm) [%] | % infection of the leaves after application of an aqueous preparation comprising . . . ppm of active compound ([1]; 16 ppm) [%] | % infection of the leaves after application of an aqueous preparation comprising . . . ppm of active compound ([1]; 63 ppm) [%] | % infection of the leaves after application of an aqueous preparation comprising . . . ppm of active compound ([1]; 250 ppm) [%] | % infection of the leaves after application of an aqueous preparation comprising . . . ppm of active compound (Puccinia recondita; 16 ppm) [%] | % infection of the leaves after application of an aqueous preparation comprising . . . ppm of active compound (Puccinia recondita; 63 ppm) [%] | % infection of the leaves after application of an aqueous preparation comprising . . . ppm of active compound (Pyrenophora teres; 250 ppm) [%]
CC(Nc1c(-c2ccccc2Cl)c(Cl)nc2ncnn12)C(C)(C)C (single isomer, unassigned) [I.-44a] | 60 | 7 | 60 | 7 | 7 | 60 | 50 | 30 | 30 | – | – | –
CC(C)[C@@H](C)Nc1c(-c2c(F)cccc2Cl)c(Cl)nc2ncnn12 [I.-2] | – | – | 0 | 0 | 0 | 5 | – | 40 | 40 | 15 | 5 | –
CCC(C)Nc1c(-c2c(F)cccc2F)c(Cl)nc2ncnn12 (stereo not drawn) [I.-4] | – | – | 20 | 15 | 3 | 10 | 80 | 60 | 60 | 40 | 20 | –
CC[C@@H](C)Nc1c(-c2c(F)cc(OC)cc2F)c(Cl)nc2ncnn12 [I.-16] | – | – | – | 70 | 70 | – | 40 | 40 | 20 | 7 | 0 | –
CCC(C)Nc1c(-c2c(F)c(F)c(F)c(F)c2F)c(Cl)nc2ncnn12 (stereo not drawn) [I.-19] | – | – | 50 | 10 | 10 | – | – | 7 | 7 | – | – | 30
CC(C)[C@@H](C)Nc1c(-c2c(F)c(F)c(F)c(F)c2F)c(Cl)nc2ncnn12 [I.-20] | 30 | 10 | 10 | 10 | 10 | – | 30 | 20 | 5 | – | – | 0
